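Results reflect a 48-hour exposure of cells in 96-well plates to compound at five concentrations. Abbreviation: GI50, concentration required for 50% inhibition of growth.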 The source made the active and inactive calls. No stated cut-off is given here; in the data, active = GI50 up to about 1.1 µM and inactive = higher.
How the values were obtained:
Experiment in all cases: NCI tumour cell line growth inhibition, 48 h
[1] = system: CCRF-CEM
[2] = system: SF-295
[3] = system: TK-10
[4] = system: SW-620
[5] = system: HCC 2998
[6] = system: 786-0
[7] = system: M14
[8] = system: SF-539
[9] = system: LOX IMVI
[10] = system: SK-MEL-5
[11] = system: EKVX
[12] = system: NCI-H522
[13] = system: UACC-257
[14] = system: OVCAR-8
[15] = system: NCI-H460
[16] = system: RPMI-8226
[17] = system: SNB-19
[18] = system: SK-MEL-2
[19] = system: SR

Measured: GI50

Clc1ccc(-c2nnc(-c3nn(-c4ccccc4)c4nc5ccccc5nc34)o2)cc1
inactive: [1] 28.2 µM | [2] > 100 µM | [3] > 100 µM | [4] 62.4 µM | [5] > 100 µM | [6] > 100 µM | [7] 48.3 µM | [8] > 100 µM | [9] > 100 µM | [10] 12.9 µM | [11] > 100 µM | [12] > 100 µM | [13] 67.5 µM | [14] 82.8 µM | [15] > 100 µM | [16] 24.7 µM | [17] > 100 µM | [18] > 100 µM

OCCNCO
inactive: [1] > 100 µM | [2] > 100 µM | [3] > 100 µM | [4] > 100 µM | [6] > 100 µM | [7] > 100 µM | [8] > 100 µM | [9] > 100 µM | [10] > 100 µM | [19] > 100 µM | [11] > 100 µM | [12] > 100 µM | [13] > 100 µM | [14] > 100 µM | [15] > 100 µM | [16] > 100 µM | [17] > 100 µM | [18] > 100 µM

CC(=O)n1c(=O)c2cc3c(=O)n(-c4cccc(C#N)c4)c(=O)c3cc2c1=O
inactive: [1] > 100 µM | [2] 60.7 µM | [3] > 100 µM | [4] > 100 µM | [5] > 100 µM | [6] 90.4 µM | [7] > 100 µM | [8] > 100 µM | [9] > 100 µM | [10] > 100 µM | [11] > 100 µM | [12] > 100 µM | [13] > 100 µM | [14] > 100 µM | [15] > 100 µM | [17] 67 µM | [18] > 100 µM

COc1cc(-c2nn3c(=O)n(-c4ccc(Cl)cc4)c(=O)nc3s2)cc(OC)c1OC
inactive: [1] > 100 µM | [2] > 50 µM | [3] 8.55 µM | [4] > 100 µM | [5] > 100 µM | [6] 12.3 µM | [7] 39.2 µM | [8] 17 µM | [9] 18.5 µM | [10] > 52.4 µM | [11] > 86.5 µM | [12] > 58.2 µM | [13] > 58.7 µM | [14] > 49.5 µM | [15] > 100 µM | [16] > 50 µM | [17] 19.1 µM | [18] 24.9 µM

O=C(O)CCSC(=O)Nc1ccc([N+](=O)[O-])cc1
inactive: [1] > 100 µM | [2] > 100 µM | [3] > 100 µM | [4] > 100 µM | [5] > 100 µM | [6] > 100 µM | [7] > 100 µM | [8] > 100 µM | [9] > 100 µM | [19] > 100 µM | [11] > 100 µM | [13] > 100 µM | [14] > 100 µM | [15] > 100 µM | [16] > 100 µM | [17] > 100 µM | [18] > 100 µM

[O-][S+](c1ccc(O)cc1)c1ccc(O)cc1
inactive: [1] > 100 µM | [2] > 100 µM | [3] > 100 µM | [4] > 100 µM | [5] > 100 µM | [6] > 100 µM | [7] > 100 µM | [8] > 100 µM | [9] > 100 µM | [10] > 100 µM | [11] > 100 µM | [12] > 100 µM | [13] > 100 µM | [15] > 100 µM | [16] > 100 µM | [17] > 100 µM | [18] > 100 µM

CC1CCC2(NC1)OC1CC3[C@@H]4CC=C5C=CCC[C@]5(C)C4CC[C@]3(C)C1C2C (stereo partly drawn)
inactive: [1] 21 µM | [2] 23.3 µM | [3] 15.3 µM | [4] 19.7 µM | [5] 17.2 µM | [6] 16.6 µM | [7] 22.4 µM | [8] 19.6 µM | [9] 17.9 µM | [10] 15.3 µM | [11] 19.6 µM | [13] 22.5 µM | [14] 17.9 µM | [15] 19 µM | [16] 20 µM | [17] 38.5 µM | [18] 19 µM

COc1ccc(-c2cc(=O)c3c(O)cccc3o2)c(OC)c1OC
inactive: [1] > 100 µM | [2] 43.2 µM | [3] 47.1 µM | [4] 22.4 µM | [5] > 100 µM | [6] > 100 µM | [7] > 100 µM | [8] 20.6 µM | [9] 55.2 µM | [10] 24.7 µM | [12] > 100 µM | [13] > 100 µM | [14] > 100 µM | [15] 80 µM | [16] > 100 µM | [18] 20.2 µM
